Experimental findings from patent US9688699B2, “3-(pyrimidine-2-yl)imidazo[1,2-a]pyridines” (Bayer Pharma Aktiengesellschaft, priority 2014, dated 2017) are described below.

Counter-ions that a name gives are not always drawn.

The target of experiment [1] is T1, recombinant guanylate cyclase reporter cell line (Rattus norvegicus, UniProt P19686+P20595).
T1 construct: expressed in transfected cells
T1 sequence (P19686 1-690): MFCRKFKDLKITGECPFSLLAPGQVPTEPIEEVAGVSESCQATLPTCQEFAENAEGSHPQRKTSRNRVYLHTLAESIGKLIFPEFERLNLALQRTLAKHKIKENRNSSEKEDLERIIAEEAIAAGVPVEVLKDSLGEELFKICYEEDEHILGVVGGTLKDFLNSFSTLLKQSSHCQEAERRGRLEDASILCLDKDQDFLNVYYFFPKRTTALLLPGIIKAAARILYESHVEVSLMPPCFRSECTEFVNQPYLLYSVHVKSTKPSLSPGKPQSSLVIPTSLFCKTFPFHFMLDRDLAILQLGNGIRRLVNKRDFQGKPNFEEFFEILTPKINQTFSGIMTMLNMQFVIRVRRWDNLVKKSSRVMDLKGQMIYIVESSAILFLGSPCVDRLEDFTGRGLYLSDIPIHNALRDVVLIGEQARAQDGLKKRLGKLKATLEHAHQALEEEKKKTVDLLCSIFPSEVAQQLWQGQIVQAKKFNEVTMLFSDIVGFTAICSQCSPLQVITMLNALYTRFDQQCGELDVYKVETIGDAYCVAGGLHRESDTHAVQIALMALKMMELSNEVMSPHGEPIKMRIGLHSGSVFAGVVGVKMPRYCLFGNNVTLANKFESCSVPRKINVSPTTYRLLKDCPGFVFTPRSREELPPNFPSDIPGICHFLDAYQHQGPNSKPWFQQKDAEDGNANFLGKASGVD
T1 sequence (P20595 1-619): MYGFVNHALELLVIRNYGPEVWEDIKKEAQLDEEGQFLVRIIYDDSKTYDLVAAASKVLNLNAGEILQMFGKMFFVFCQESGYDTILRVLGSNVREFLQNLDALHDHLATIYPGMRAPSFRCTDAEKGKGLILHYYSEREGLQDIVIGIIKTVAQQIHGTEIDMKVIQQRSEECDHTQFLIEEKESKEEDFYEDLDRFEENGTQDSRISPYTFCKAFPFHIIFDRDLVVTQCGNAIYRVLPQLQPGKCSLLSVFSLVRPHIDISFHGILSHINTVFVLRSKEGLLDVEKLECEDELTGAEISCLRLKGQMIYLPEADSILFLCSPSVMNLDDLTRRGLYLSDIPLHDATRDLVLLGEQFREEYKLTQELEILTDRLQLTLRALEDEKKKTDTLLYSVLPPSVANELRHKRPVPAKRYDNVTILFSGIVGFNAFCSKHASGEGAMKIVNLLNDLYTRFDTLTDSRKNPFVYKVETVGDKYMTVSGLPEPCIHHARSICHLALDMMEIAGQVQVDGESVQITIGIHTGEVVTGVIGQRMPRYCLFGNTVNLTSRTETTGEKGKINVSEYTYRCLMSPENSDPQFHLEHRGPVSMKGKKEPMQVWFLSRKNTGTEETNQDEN
Kind of experiment: Effect on a recombinant guanylate cyclase reporter cell line (B-2). In kind it is cell-based. Conditions: MEC = minimum effective concentration, in some cases mean values for individual determinations. How it is done:
B-2. Effect on a Recombinant Guanylate Cyclase Reporter Cell Line
The cellular activity of the compounds according to the invention is determined using a recombinant guanylate cyclase reporter cell line, as described in F. Wunder et al., Anal. Biochem. 339, 104-112 (2005).
Representative MEC values (MEC=minimum effective concentration) for the compounds of the invention are shown in Table 1 below (in some cases as mean values for individual determinations): […]

In experiment [2] the target is T2, human phosphodiesterase 5 (PDE 5) (Homo sapiens, UniProt O76074).
T2 construct: PDE 5 preparations are obtained from human platelets by disruption; from tissue; host or cells: human platelets (Mono Q ion exchange fractions with PDE 5 activity)
Kind of experiment: Inhibition of human phosphodiesterase 5 (PDE 5) (B-3). It counts as biochemical. Conditions: PDE 5 preparation from human platelets; [8-3H] cGMP substrate, SPA; in some cases means of individual determinations. How it is done: B-3. Inhibition of Human Phosphodiesterase 5 (PDE 5)
PDE 5 preparations are obtained from human platelets by disruption (Microfluidizer®, 800 bar, 3 passes), followed by centrifugation (75 000 g, 60 min, 4° C.) and ion exchange chromatography of the supernatant on a Mono Q 10/10 column (linear sodium chloride gradient, elution with a 0.2-0.3M solution of sodium chloride in buffer (20 mM Hepes pH 7.2, 2 mM magnesium chloride). Fractions having PDE 5 activity are combined (PDE 5 preparation) and stored at −80° C.
To determine their in vitro action on human PDE 5, the test substances are dissolved in 100% DMSO and serially diluted. Typically, dilution series (1:3) from 200 μM to 0.091 μM are prepared (resulting final concentrations in the test: 4 μM to 0.0018 μM). In each case 2 μl of the diluted substance solutions are placed into the wells of microtitre plates (Isoplate-96/200 W; Perkin Elmer). Subsequently, 50 μl of a dilution of the above-described PDE 5 preparation are added. The dilution of the PDE 5 preparation is chosen such that during the later incubation less than 70% of the substrate are converted (typical dilution: 1:100; dilution buffer: 50 mM tris/hydrochloric acid pH 7.5, 8.3 mM magnesium chloride, 1.7 mM EDTA, 0.2% BSA). The substrate, [8-^3H] cyclic guanosine-3′,5′-monophosphate (1 μCi/μl; Perkin Elmer), is diluted 1:2000 with assay buffer (50 mM tris/hydrochloric acid pH 7.5, 8.3 mM magnesium chloride, 1.7 mM EDTA) to a concentration of 0.0005 μCi/μl. By addition of 50 μl (0.025 μCi) of the diluted substrate, the enzyme reaction is finally started. The test mixtures are incubated at room temperature for 60 min and the reaction is stopped by adding 25 μl of a suspension of 18 mg/ml yttrium scintillation proximity beads in water (phosphodiesterase beads for SPA assays, RPNQ 0150, Perkin Elmer). The microtitre plates are sealed with a film and left to stand at room temperature for 60 min. Subsequently, the plates are analysed for 30 s per well in a Microbeta scintillation counter (Perkin Elmer). IC50 values are determined using the graphic plot of the substance concentration against percentage PDE 5 inhibition.

For orientation: IC50 means the concentration that gives 50% inhibition. High values mean lower potency, low ones higher potency. With `CCCC(C)(N)CNc1nc(-c2c(C)nc3c(OCc4c(F)cccc4F)cccn23)nc2c1C(C)(C)C(=O)N2` (racemic) [Example 13, rac-4-[(2-Amino-2-methylpentyl)amino]-2-{8-[(2,6-difluorobenzyl)oxy]-2-methylimidazo[1,2-a]pyridin-3-yl}-5,5-dimethyl-5,7-dihydro-6H-pyrrolo[2,3-d]pyrimidin-6-one (racemate)], in experiment [1], the MEC was determined as 1 µM. In experiment [2], the IC50 is 0.012 µM.

With `Cc1nc2c(OCc3c(F)ccc(F)c3F)cccn2c1-c1nc2c(c(C(=O)N3CCN(C)CC3)n1)C(C)(C)C(=O)N2` [Example 60, 5,5-dimethyl-4-[(4-methylpiperazin-1-yl)carbonyl]-2-{2-methyl-8-[(2,3,6-trifluorobenzyl)oxy]imidazo[1,2-a]pyridin-3-yl}-5,7-dihydro-6H-pyrrolo[2,3-d]pyrimidin-6-one trifluoroacetate], the MEC in experiment [1] stood at 3 µM. Also, the concentration for half-maximal inhibition (IC50) in experiment [2] amounted to 0.42 µM.

On to `Cc1nc2c(OCc3c(F)cccc3F)cccn2c1-c1nc(NCC(C)(C)O)c2c(n1)NC(=O)C2(C)C` [Example 16, 2-{8-[(2,6-Difluorobenzyl)oxy]-2-methylimidazo[1,2-a]pyridin-3-yl}-4-[(2-hydroxy-2-methylpropyl)amino]-5,5-dimethyl-5,7-dihydro-6H-pyrrolo[2,3-d]pyrimidin-6-one], for which, in experiment [1], the MEC came to 0.65 µM. Also, the half-inhibitory concentration (IC50) in experiment [2] is 0.0048 µM.

Take `Cc1nc2c(OCc3c(F)cccc3F)cccn2c1-c1nc(N)c2c(n1)NC(=O)C2(C)C` [Example 1, 4-Amino-2-{8-[(2,6-difluorobenzyl)oxy]-2-methylimidazo[1,2-a]pyridin-3-yl}-5,5-dimethyl-5,7-dihydro-6H-pyrrolo[2,3-d]pyrimidin-6-one]: the MEC in experiment [1] was 0.3 µM. For the same compound, the midpoint of inhibition in experiment [2], the IC50, lay at 0.034 µM.

With `COCC(C)(N)CNc1nc(-c2c(C)nc3c(OCc4c(F)cccc4F)cccn23)nc2c1C(C)(C)C(=O)N2` (single isomer, unassigned; ent-4) [Example 46, ent-4-[(2-Amino-3-methoxy-2-methylpropyl)amino]-2-{8-[(2,6-difluorobenzyl)oxy]-2-methylimidazo[1,2-a]pyridin-3-yl}-5,5-dimethyl-5,7-dihydro-6H-pyrrolo[2,3-d]pyrimidin-6-one (Enantiomer B)], in experiment [1], the MEC worked out at 1 µM. The compound also yielded an IC50 in experiment [2] of 0.12 µM.

In the case of `Cc1nc2c(OCc3c(F)cccc3F)cccn2c1-c1nc(CNC(=O)C2CC2)c2c(n1)NC(=O)C2(C)C` [Example 66, N-[(2-{8-[(2,6-Difluorobenzyl)oxy]-2-methylimidazo[1,2-a]pyridin-3-yl}-5,5-dimethyl-6-oxo-6,7-dihydro-5H-pyrrolo[2,3-d]pyrimidin-4-yl)methyl]cyclopropanecarboxamide], in experiment [1], the MEC is 3 µM. This compound also gave a concentration for half-maximal inhibition (IC50) in experiment [2] of 0.048 µM.

As to `Cc1nc2c(OCc3c(F)cccc3F)cccn2c1-c1nc(NCC(C)(N)C(F)F)c2c(n1)NC(=O)C2(C)C` (racemic) [Example 39, rac-4-[(2-amino-3,3-difluoro-2-methylpropyl)amino]-2-{8-[(2,6-difluorobenzyl)oxy]-2-methylimidazo[1,2-a]pyridin-3-yl}-5,5-dimethyl-5,7-dihydro-6H-pyrrolo[2,3-d]pyrimidin-6-one], the MEC in experiment [1] is 0.3 µM. The compound further gave an IC50 in experiment [2] of 0.0096 µM.

With `Cc1nc2c(OCc3c(F)ccc(F)c3F)cccn2c1-c1nc2c(c(C(=O)NCC(C)(C)N)n1)C(C)(C)C(=O)N2` [Example 58, N-(2-amino-2-methylpropyl)-5,5-dimethyl-2-{2-methyl-8-[(2,3,6-trifluorobenzyl)oxy]imidazo[1,2-a]pyridin-3-yl}-6-oxo-6,7-dihydro-5H-pyrrolo[2,3-d]pyrimidin-4-carboxamide trifluoroacetate], the MEC in experiment [1] was 3 µM. Also, in experiment [2], it took 0.0052 µM to reach half-maximal inhibition (IC50).

With `COc1ccc(CC(C)(N)CNc2nc(-c3c(C)nc4c(OCc5c(F)cccc5F)cccn34)nc3c2C(C)(C)C(=O)N3)cc1` (racemic) [Example 20, rac-4-{[2-amino-3-(4-methoxyphenyl)-2-methylpropyl]amino}-2-{8-[(2,6-difluorobenzyl)oxy]-2-methylimidazo[1,2-a]pyridin-3-yl}-5,5-dimethyl-5,7-dihydro-6H-pyrrolo[2,3-d]pyrimidin-6-one], in experiment [1], the MEC is 3 µM. This compound yielded an IC50 in experiment [2] of 0.11 µM.

In the case of `Cc1nc2c(OCc3c(F)ccc(F)c3F)cccn2c1-c1nc2c(c(C(=O)N3CCC(CO)C3)n1)C(C)(C)C(=O)N2` (racemic) [Example 63, rac-4-{[3-(hydroxymethyl)pyrrolidin-1-yl]carbonyl}-5,5-dimethyl-2-{2-methyl-8-[(2,3,6-trifluorobenzyl)oxy]imidazo[1,2-a]pyridin-3-yl}-5,7-dihydro-6H-pyrrolo[2,3-d]pyrimidin-6-one], the MEC in experiment [1] is 3 µM. This compound yielded an IC50 in experiment [2] of 0.22 µM.

For the compound `Cc1nc2c(OCc3c(F)cccc3F)cccn2c1-c1nc(NCC(N)(CF)CF)c2c(n1)NC(=O)C2(C)C` [Example 33, 4-{[2-amino-3-fluoro-2-(fluoromethyl)propyl]amino}-2-{8-[(2,6-difluorobenzyl)oxy]-2-methylimidazo[1,2-a]pyridin-3-yl}-5,5-dimethyl-5,7-dihydro-6H-pyrrolo[2,3-d]pyrimidin-6-one], the MEC in experiment [1] turned out to be 1 µM. This compound showed an IC50 in experiment [2] of 0.0097 µM.

With `Cc1nc2c(OCc3c(F)cccc3F)cccn2c1-c1nc(CN)c2c(n1)NC(=O)C2(C)C` [Example 49, 4-(Aminomethyl)-2-{8-[(2,6-difluorobenzyl)oxy]-2-methylimidazo[1,2-a]pyridin-3-yl}-5,5-dimethyl-5,7-dihydro-6H-pyrrolo[2,3-d]pyrimidin-6-one], in experiment [1], the MEC was found to be 1 µM. In experiment [2], this compound yielded an IC50 of 0.048 µM.

`Cc1nc2c(OCc3c(F)ccc(F)c3F)cccn2c1-c1nc2c(c(C(=O)N3CC(N)C(F)(F)C3)n1)C(C)(C)C(=O)N2` (racemic) [Example 61, rac-4-[(4-amino-3,3-difluoropyrrolidin-1-yl)carbonyl]-5,5-dimethyl-2-{2-methyl-8-[(2,3,6-trifluorobenzyl)oxy]imidazo[1,2-a]pyridin-3-yl}-5,7-dihydro-6H-pyrrolo[2,3-d]pyrimidin-6-one trifluoroacetate]: the MEC in experiment [1] was 3 µM. Besides, the concentration for half-maximal inhibition (IC50) in experiment [2] turned out to be 0.73 µM.
